Legend:
α9α10 nAChRs = α9α10 nAChRs (Rattus norvegicus, UniProt P43144+Q9JLB5); format: cell-based; details: for selectivity for the α9α10 subtype vs. the α7 subtype: ratio of α7 to α9α10 IC50; for inhibition of α9α10 ACh-gated currents at the probe concentration: 100 nM probe concentration, result in words
[1] = cited from earlier work
[2] = phase 2; cited from earlier work
[3] = cited from earlier work; for tolerance to the antihyperalgesic effect: rat, repeated dosing (7 days)
[4] = rat CCI pain model as printed; cited from earlier work
[5] = rat; cited from earlier work
α7 nAChR = α7 nAChR (Rattus norvegicus, UniProt Q05941); format: cell-based
GABAA receptors = test: Interaction with GABAA receptors; details: unpublished data
GABAB receptors = GABAB receptors (Homo sapiens, UniProt O75899+Q9UBS5); test: Interaction with GABAB receptors; details: unpublished data
5HT3 receptors = target: T1, 5HT3 receptors (Homo sapiens, UniProt P46098); test: Affinity for 5HT3 receptors; format: binding; details: unpublished data
T1 sequence (P46098 24-478): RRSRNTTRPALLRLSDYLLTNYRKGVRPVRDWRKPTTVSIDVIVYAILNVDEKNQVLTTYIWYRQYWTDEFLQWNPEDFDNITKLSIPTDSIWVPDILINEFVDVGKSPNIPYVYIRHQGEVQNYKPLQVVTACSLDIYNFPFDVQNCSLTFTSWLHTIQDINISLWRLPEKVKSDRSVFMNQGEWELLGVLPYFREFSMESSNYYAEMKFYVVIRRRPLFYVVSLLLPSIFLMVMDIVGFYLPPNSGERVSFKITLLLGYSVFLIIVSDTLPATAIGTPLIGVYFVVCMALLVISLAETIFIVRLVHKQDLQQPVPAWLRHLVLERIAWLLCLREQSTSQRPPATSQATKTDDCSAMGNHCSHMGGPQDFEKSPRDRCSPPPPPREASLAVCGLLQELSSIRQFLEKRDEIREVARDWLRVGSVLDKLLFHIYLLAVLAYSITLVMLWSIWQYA

κ-opioid receptors = κ-opioid receptors (Homo sapiens, UniProt P41145); test: Affinity for κ-opioid receptors; format: binding; details: unpublished data
Chain of κ-opioid receptors (P41145 whole entry): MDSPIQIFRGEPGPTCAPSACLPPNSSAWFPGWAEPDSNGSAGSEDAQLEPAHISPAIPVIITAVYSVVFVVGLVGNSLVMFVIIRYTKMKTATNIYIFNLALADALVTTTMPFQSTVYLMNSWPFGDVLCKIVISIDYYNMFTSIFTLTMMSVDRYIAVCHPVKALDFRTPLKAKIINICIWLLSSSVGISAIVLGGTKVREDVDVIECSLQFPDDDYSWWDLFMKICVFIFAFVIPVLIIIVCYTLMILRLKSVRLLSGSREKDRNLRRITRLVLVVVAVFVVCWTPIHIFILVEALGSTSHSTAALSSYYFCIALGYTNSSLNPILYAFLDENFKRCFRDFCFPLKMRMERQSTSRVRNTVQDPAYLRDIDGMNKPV

Chain of α7 nAChR (Q05941 23-502): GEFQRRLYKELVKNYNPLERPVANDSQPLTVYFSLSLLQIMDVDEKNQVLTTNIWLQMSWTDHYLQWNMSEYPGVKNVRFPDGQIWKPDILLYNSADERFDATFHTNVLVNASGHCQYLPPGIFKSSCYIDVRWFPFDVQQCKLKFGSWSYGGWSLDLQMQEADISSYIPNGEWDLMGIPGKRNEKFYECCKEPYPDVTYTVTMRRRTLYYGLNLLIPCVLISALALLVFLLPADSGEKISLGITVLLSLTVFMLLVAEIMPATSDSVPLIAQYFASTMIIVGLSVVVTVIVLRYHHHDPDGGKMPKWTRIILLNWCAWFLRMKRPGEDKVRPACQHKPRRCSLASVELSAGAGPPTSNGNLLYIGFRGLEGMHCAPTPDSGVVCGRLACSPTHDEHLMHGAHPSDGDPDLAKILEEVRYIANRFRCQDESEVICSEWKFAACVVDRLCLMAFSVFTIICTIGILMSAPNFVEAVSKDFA
Chain of α9α10 nAChRs (P43144 26-479): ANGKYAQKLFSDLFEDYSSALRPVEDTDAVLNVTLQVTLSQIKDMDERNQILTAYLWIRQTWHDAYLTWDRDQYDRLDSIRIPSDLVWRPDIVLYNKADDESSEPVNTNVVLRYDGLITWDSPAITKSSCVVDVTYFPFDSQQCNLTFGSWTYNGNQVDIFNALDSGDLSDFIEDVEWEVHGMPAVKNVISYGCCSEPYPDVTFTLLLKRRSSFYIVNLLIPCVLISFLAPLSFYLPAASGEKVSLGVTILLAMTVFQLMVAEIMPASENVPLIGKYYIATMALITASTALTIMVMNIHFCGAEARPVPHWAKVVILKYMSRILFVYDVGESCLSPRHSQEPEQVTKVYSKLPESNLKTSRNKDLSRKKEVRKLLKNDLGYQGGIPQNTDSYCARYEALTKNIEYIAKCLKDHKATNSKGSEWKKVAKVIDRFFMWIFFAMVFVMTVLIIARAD
Chain of α9α10 nAChRs (Q9JLB5 25-447): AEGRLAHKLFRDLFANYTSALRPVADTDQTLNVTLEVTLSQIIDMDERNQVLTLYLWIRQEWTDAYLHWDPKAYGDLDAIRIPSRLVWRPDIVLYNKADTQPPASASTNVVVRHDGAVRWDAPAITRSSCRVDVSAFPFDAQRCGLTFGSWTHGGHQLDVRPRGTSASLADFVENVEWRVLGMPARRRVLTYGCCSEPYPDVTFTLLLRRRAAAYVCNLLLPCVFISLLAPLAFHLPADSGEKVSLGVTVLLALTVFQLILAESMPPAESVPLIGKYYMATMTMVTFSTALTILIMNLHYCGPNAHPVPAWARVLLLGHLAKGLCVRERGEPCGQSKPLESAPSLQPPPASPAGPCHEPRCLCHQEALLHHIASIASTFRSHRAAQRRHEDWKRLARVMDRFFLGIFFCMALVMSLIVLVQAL
Chain of GABAB receptors (Q9UBS5 15-961 limits assumed): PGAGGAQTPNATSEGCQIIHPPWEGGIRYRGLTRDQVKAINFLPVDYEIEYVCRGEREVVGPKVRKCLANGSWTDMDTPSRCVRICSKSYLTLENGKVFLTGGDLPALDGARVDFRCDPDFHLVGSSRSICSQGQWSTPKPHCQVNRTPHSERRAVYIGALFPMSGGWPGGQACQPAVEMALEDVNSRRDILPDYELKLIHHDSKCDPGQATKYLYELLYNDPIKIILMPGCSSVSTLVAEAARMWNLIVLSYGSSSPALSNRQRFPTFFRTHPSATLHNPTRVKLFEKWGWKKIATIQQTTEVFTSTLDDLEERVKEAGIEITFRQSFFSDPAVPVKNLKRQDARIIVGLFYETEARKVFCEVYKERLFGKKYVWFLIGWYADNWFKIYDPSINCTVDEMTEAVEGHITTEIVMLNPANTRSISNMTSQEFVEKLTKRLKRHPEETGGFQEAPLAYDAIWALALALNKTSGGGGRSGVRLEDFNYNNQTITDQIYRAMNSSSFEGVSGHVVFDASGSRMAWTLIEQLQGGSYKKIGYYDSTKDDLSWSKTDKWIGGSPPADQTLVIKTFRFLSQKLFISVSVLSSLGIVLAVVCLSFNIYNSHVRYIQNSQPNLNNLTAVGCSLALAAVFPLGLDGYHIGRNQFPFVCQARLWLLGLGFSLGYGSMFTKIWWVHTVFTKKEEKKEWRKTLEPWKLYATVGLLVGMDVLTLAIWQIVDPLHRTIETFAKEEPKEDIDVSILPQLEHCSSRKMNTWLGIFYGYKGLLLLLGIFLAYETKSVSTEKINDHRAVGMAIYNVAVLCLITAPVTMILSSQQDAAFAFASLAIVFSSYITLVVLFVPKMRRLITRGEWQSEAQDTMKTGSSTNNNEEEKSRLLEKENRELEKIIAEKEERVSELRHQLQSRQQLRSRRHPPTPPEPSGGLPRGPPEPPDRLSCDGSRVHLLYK
Chain of GABAB receptors (O75899 42-941): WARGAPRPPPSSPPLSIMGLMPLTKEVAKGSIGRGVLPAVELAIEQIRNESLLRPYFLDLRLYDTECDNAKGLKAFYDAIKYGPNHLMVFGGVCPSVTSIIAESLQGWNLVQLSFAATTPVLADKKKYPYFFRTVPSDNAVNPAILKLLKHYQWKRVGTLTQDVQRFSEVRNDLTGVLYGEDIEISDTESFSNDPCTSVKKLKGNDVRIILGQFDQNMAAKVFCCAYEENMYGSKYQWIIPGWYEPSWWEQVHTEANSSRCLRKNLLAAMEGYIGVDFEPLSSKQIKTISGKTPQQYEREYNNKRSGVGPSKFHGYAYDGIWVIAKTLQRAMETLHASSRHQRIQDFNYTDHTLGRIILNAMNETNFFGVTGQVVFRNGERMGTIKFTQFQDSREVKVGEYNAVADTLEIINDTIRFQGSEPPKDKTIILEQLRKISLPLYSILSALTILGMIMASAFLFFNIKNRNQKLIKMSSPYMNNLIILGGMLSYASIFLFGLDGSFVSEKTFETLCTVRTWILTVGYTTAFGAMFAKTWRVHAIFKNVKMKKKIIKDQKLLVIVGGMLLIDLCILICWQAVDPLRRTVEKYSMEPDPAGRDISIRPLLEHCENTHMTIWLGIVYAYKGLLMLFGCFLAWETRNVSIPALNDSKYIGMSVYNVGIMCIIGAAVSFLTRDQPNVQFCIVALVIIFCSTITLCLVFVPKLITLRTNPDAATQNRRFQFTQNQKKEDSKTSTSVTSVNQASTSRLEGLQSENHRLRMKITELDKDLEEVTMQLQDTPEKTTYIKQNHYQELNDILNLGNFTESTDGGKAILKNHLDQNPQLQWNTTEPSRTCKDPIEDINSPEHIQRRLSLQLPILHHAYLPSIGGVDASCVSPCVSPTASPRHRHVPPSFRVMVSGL

Row | SMILES | analgesic effect in the rat tail-flick test [1] | analgesic effect in the rat formalin model [2] | effect on mechanical hyperalgesia in the rat CCI model [3] | tolerance to the antihyperalgesic effect [3] | efficacious doses versus doses producing toxicity in the rotarod test [5] | IC50 (α9α10 nAChRs) [nM] | IC50 (α7 nAChR) [nM] | inhibition of α9α10 ACh-gated currents at the probe concentration (α9α10 nAChRs) | other results
1 | Cc1cc[n+](CC#Cc2ccc(-c3ccc(C#CC[n+]4ccc(C)c(C)c4)cc3)cc2)cc1C.[Br-].[Br-] [Compound 7a] | ineffective | demonstrated an analgesic effect | reversed mechanical hyperalgesia in a dose-related manner | not observed | efficacy was achieved at doses well below those that produced toxicity |  |  |  | selectivity for the α9α10 subtype vs. the α7 subtype (α9α10 nAChRs): 75 fold; alleviation of vincristin-induced neuropathic pain [4]: effective
2 | Cc1cc[n+](CCCc2ccc(-c3ccc(CCC[n+]4ccc(C)c(C)c4)cc3)cc2)cc1C.[Br-].[Br-] [Compound 8a] |  |  |  |  |  | 670 | 6010 |  | selectivity for the α9α10 subtype vs. the α7 subtype (α9α10 nAChRs): 9 fold
3 | C(#Cc1cc(C#CCCC[n+]2cccc(-c3ccccc3)c2)cc(C#CCCC[n+]2cccc(-c3ccccc3)c2)c1)CCC[n+]1cccc(-c2ccccc2)c1 [Compound 9e] |  |  |  |  |  | 1.7 | 185 |  | 
4 | [Br-].[Br-].[Br-].c1ccc2c(c1)ccc[n+]2CCCCCc1cc(CCCCC[n+]2cccc3ccccc32)cc(CCCCC[n+]2cccc3ccccc32)c1 [Compound 10c] | ineffective | demonstrated an analgesic effect | reversed mechanical hyperalgesia in a dose-related manner | not observed | efficacy was achieved at doses well below those that produced toxicity | 4.2 | 1510 |  | 
5 | c1ccc2c[n+](CCCCCc3cc(CCCCC[n+]4ccc5ccccc5c4)cc(CCCCC[n+]4ccc5ccccc5c4)c3)ccc2c1 [Compound 10d] |  |  |  |  |  | 4.8 | 170 |  | 
6 | c1ccc(-c2ccc[n+](CCCCCc3cc(CCCCC[n+]4cccc(-c5ccccc5)c4)cc(CCCCC[n+]4cccc(-c5ccccc5)c4)c3)c2)cc1 [Compound 10e] |  |  |  |  |  | 3.7 | 91 |  | 
7 | Cc1cc(C)c[n+](CCCC#Cc2cc(C#CCCC[n+]3cc(C)cc(C)c3)c(C#CCCC[n+]3cc(C)cc(C)c3)cc2C#CCCC[n+]2cc(C)cc(C)c2)c1.[Br-].[Br-].[Br-].[Br-] [Compound 11b] |  |  |  |  |  |  |  | nearly complete inhibition | 
8 | C(#Cc1cc(C#CCCC[n+]2cccc(-c3ccccc3)c2)c(C#CCCC[n+]2cccc(-c3ccccc3)c2)cc1C#CCCC[n+]1cccc(-c2ccccc2)c1)CCC[n+]1cccc(-c2ccccc2)c1.[Br-].[Br-].[Br-].[Br-] [Compound 11e] | ineffective | demonstrated an analgesic effect | reversed mechanical hyperalgesia in a dose-related manner | not observed | efficacy was achieved at doses well below those that produced toxicity | 0.56 | 8.8 | nearly complete inhibition | interaction with GABAA receptors (GABAA receptors): does not interact; interaction with GABAB receptors (GABAB receptors): does not interact; affinity for 5HT3 receptors compared to α9α10 nAChRs (5HT3 receptors): several orders of magnitude lower affinity; affinity for κ-opioid receptors compared to α9α10 nAChRs (κ-opioid receptors): several orders of magnitude lower affinity
9 | Cc1cc(C)c[n+](CCCCCc2cc(CCCCC[n+]3cc(C)cc(C)c3)c(CCCCC[n+]3cc(C)cc(C)c3)cc2CCCCC[n+]2cc(C)cc(C)c2)c1.[Br-].[Br-].[Br-].[Br-] [Compound 12b] |  |  |  |  |  |  |  | nearly complete inhibition | 

Source: paper PMC3726002 (Bioorganic & medicinal chemistry letters, 2011)
